We go through four molecules from patent US8642284B1, “Methods for identifying agents that alter NAD-dependent deacetylation activity of a SIR2 protein” (Massachusetts Institute of Technology, priority 1999, dated 2014).

Entries after “also recorded” stand apart in the source; their conditions may differ.

Assay [1] addresses T1, mSir2α (Mus musculus, UniProt Q923E4).
T1 construct: ADP-ribosylase activity of bacterial recombinant full-length proteins of ySir2p and mSir2α was determined in in vitro assays; 6×His; made in house; host or cells: E. coli BL21 (DE3) pLysS with an extra copy of arginine tRNA gene, pET28a
T1 sequence (Q923E4 1-737): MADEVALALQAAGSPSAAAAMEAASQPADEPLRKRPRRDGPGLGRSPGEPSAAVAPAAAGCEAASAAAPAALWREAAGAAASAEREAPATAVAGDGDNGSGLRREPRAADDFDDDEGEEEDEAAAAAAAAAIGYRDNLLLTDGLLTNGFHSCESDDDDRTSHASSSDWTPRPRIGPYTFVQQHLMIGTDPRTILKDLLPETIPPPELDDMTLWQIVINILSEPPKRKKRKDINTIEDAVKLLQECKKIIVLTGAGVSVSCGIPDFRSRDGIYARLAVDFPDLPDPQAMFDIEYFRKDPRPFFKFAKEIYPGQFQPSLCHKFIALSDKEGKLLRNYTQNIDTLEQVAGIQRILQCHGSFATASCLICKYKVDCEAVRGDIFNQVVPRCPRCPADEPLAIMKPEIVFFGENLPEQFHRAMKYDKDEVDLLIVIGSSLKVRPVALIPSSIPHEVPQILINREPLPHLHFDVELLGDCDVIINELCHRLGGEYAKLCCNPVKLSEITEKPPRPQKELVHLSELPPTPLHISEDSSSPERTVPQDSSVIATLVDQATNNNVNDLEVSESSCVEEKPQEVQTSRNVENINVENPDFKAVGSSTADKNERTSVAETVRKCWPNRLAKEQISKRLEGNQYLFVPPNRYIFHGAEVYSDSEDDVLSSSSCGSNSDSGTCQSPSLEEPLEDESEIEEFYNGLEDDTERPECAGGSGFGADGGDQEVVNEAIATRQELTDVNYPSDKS
Briefly: ADP-ribosylation assay, sensitivity of mSir2α to poly- and mono-ADP-ribosylation inhibitors (histone H2B, 32P-NAD). The class given is biochemical. Conditions: for inhibition of the ADP-ribosylation activity of the mSir2α protein: 40, 200 and 1000 μM. The method, then: (§1) The typical reaction was performed in 50 or 100 μl of the buffer containing 5 mM Tris-HCl [pH8.0 or 9.0], 4 mM MgCl2, 0.2 mM DTT, 1 μM cold β-NAD^+ (SIGMA®) and 8 μCi nicotinamide adenine dinucleotide 5′[α-^32P]triphosphate (NAD) as a donor of ADP-ribose (˜1000 Ci/mmol, Amersham Pharmacia Biotech). To check the sensitivity to poly- or mono-ADP-ribosylation inhibitors, 3-aminobenzamide (ICN Pharmaceuticals, CA), benzamide, novobiocin and coumermycin A1 (SIGMA®) were added to the reactions prior to adding Sir2 proteins, respectively. The wild type or mutant recombinant proteins (0.5-1 μg for ySir2p and 10 μg of mSir2α) were added with 4 μg of each histone purchased from Roche Molecular Biochemicals (Indianapolis, Ind.). For the peptide experiments, 5-10 μg of unacetylated or acetylated N-terminal tail peptides (amino acids 1-20) of H3 and H4 purchased from Upstate Biotechnology™ (Lake Placid, N.Y.) were used as substrates of the yeast and mouse Sir2 recombinant proteins.
To analyze histone modification, 25 μl of 100% trichloroacetic acid (TCA) solution was mixed to the reaction mixture and left on ice for 15 min. The protein precipitates were centrifuged at 4° C. and washed with 5 or 20% TCA solution twice. The pellets were dissolved in 15 μl of Leammli's sample buffer and boiled for 1.5 min. The proteins were electrophoresed in a 10-20% gradient SDS-PAGE gel. The gel was stained with COOMASSIE® Brilliant Blue R-250 (GibcoBRL Life Technologies™, Frederick, Md.) to check equal loading of histones, dried, and exposed to KODAK® X-OMAT film.
The sensitivity of the ADP-ribosylase activity of mSir2α to poly ADP-ribosylation inhibitors (3-aminobenzamide and benzamide) and mono-ADP-ribosylation inhibitors (novobiocin and coumermycin A1) was evaluated. (FIG. 4F).

Assay [2] addresses T2, Sir2p (Saccharomyces cerevisiae, UniProt P06700).
T2 construct: purified recombinant yeast (rSir2p) protein, mouse Sir2 (mSir2α) proteins and vector controls; 6×His; made in house; host or cells: E. coli BL21 (DE3), pET28a
The experiment in a line: ADP-ribosylation and NAD hydrolysis by recombinant yeast Sir2p (intact histone H3, H3 peptide; SDS-PAGE, TLC). Type of assay: biochemical. Conditions: 200 μM; for inhibition of NAD hydrolysis by Sir2p: H3 peptide, TLC; for inhibition of ADP-ribosylation by Sir2p: intact histone H3 and H3 peptide. The method, then:
as §1
(§2) The typical reaction of Sir2 deacetylase activity was performed in 50 μl of buffer containing 50 mM Tris-HCl [pH 9.0], 4 mM MgCl2, 0.2 mM DTT, variable concentration of cold nicotinamide adenine dinucleotide (NAD) or NAD derivatives (SIGMA®, MO), 5-10 μg of the purified recombinant Sir2 proteins, and 10 μg of the histone H3 N-terminal tail peptide (amino acid 1-20) di-acetylated at positions 9 and 14 (Upstate Biotechnology™, NY). […] To detect the ADP-ribosylation activity, 8 μCi of NAD 5′-[α-^32P]triphosphate (˜1000 Ci/mmol, Amersham Pharmacia Biotech™, NJ) was added to the same reaction containing 1 μM cold NAD. Histone H3 protein (4 μg) (Roche Molecular Biochemicals™, IN) were used for this assay. All reaction mixtures were incubated at room temperature for 1 hr. Trichostatin A and coumermycin A1 (SIGMA™) were prepared in dimethylsulfoxide (DMSO, SIGMA®), and 5 μl of solvent or inhibitor was added to the reactions prior to adding Sir2 proteins.
Electron-spray mass spectroscopy (also referred to herein as mass spectroscopy) was done on the PE Sciex Model API365™ system. Matrix assisted laser desorption/ionization (MALDI) mass spectroscopy can also be used. The electron-spray mass spectroscopy data were analyzed by the BioMultiView Program™ (version 1.3.1). To detect the ADP-ribosylated intact H3 protein, the pellets were dissolved in 15 μl of Leammli sample buffer, boiled for 1.5 min and electrophoresed in a 10-20% gradient SDS-PAGE gel. The gel was stained with Coomassie Brilliant Blue to check equal loading of histones, dried, and exposed to KODAK® X-OMAT film. […]
The effects of a known inhibitor of mono-ADP-ribosyltransferases, coumermycin A1 (Banasik, M., et al., Mol. Cell. Biochem. 138: 185-187 (1994)) was evaluated. […]

Assay [3] concerns the target T2, Sir2p. Briefly: NAD-dependent deacetylation of di-acetylated H3 peptide by recombinant yeast Sir2p (HPLC). Type of assay: biochemical. The settings on record: 200 μM. The protocol: as §2
After the incubation, the products were precipitated at −20° C. overnight by adding 50 μl of distilled water and 25 μl of 100% trichloroacetic acid (TCA) solution. For high pressure liquid chromatography (HPLC), the precipitates were reconstituted in 5% CH3CN and 0.1% trifluoroacetic acid (TFA) and run in the gradient concentration between 0.05% TFA and 0.043% TFA plus 80% CH3CN on Hewlett Packard Model 1100 HPLC system with 214TP52 column (VYDAC, CA). The chromatograms at the absorbance of 210 nm were digitally recorded and analyzed by Hewlett Packard ChemStation™ system (version A.06.03 [509]). Fractions of samples were collected every 1 min by Gilson™ Fraction Collector Model 203. Peptide sequencing was done by the Applied Biosystems PROCISE® 494 HT protein sequencing system. PTH amino acid chromatograms were recorded and analyzed by the ABI Model 610A2.1 data integration/analysis system.
The experiments employed purified recombinant Sir2p in a reaction with NAD and a peptide of the histone H3 amino-terminal tail (residues 1-20) di-acetylated at lysines 9 and 14. These lysines are hypoacetylated in silenced chromatin and mutations at these positions to glycine greatly reduce silencing in vivo (Thompson, J. S., et al., Nature 369: 245-247 (1994)). The products of a reaction containing 5 μg of recombinant yeast Sir2p (79 pmoles) (FIG. 8a), 10 μg of the H3 peptide (4.2 nmoles) increasing concentrations of NAD were analyzed s by high pressure liquid chromatography (HPLC).

Assay [4] concerns mono-ADP-ribosyltransferases. The settings on record: literature value; read-out: reported IC50 concentration; cited from earlier work.

T2 sequence (P06700 whole entry): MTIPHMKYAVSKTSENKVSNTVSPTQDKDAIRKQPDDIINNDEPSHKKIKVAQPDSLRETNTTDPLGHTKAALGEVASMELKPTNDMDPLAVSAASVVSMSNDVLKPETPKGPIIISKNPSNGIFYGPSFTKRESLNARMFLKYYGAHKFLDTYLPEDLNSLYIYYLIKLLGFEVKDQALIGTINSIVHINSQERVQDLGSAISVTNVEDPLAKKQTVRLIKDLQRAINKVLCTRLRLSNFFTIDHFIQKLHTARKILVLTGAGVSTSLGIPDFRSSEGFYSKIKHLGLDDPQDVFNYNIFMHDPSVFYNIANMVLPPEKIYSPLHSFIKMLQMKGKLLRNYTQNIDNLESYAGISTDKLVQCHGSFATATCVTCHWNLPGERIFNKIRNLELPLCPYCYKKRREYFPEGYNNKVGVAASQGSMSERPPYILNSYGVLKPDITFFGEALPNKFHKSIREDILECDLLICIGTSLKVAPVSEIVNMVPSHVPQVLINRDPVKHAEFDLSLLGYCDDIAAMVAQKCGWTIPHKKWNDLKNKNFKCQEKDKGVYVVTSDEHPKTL

On to `NC(=O)c1cccc(N)c1` [3-aminobenzamide], for which the “inhibition of the ADP-ribosylation activity of the mSir2α protein” value in assay [1] is “did not inhibit”.

For the molecule `NC(=O)c1ccccc1` [benzamide], in assay [1], the “inhibition of the ADP-ribosylation activity of the mSir2α protein” value is recorded as “did not inhibit”.

For `CO[C@H]1[C@H](OC(=O)c2ccc(C)[nH]2)[C@H](O)[C@@H](Oc2ccc3c(O)c(NC(=O)c4c[nH]c(C(=O)Nc5c(O)c6ccc(O[C@H]7OC(C)(C)[C@@H](OC)[C@H](OC(=O)c8ccc(C)[nH]8)[C@@H]7O)c(C)c6oc5=O)c4C)c(=O)oc3c2C)OC1(C)C` [coumermycin A1], the “inhibition of ADP-ribosylation by mSir2α” value in assay [1] (40 μM) is recorded as “strongly inhibited”. In addition, in assay [2], the “inhibition of NAD hydrolysis by Sir2p” value is recorded as “inhibited” and the “inhibition of ADP-ribosylation by Sir2p” value is listed as “inhibited”. Also, in assay [2] (listed as Coumermycin A1), the “inhibition of NAD hydrolysis by Sir2p” value is on record as “inhibit” and the “inhibition of ADP-ribosylation by Sir2p” value is recorded as “inhibit”. Further, in assay [3], the “inhibition of deacetylation of the H3 tail by Sir2p” value was “did not inhibit; also recorded: not capable of inhibiting”. Also, the IC50 in assay [4] was 27 µM.

Take `CO[C@@H]1[C@@H](OC(N)=O)[C@@H](O)[C@H](Oc2ccc3c(O)c(NC(=O)c4ccc(O)c(CC=C(C)C)c4)c(=O)oc3c2C)OC1(C)C` [novobiocin]: the “inhibition of ADP-ribosylation by mSir2α” value in assay [1] (200 μM) is “strongly inhibited”. In assay [4], the IC50 is 370 µM.
